Source: US5288709A, “Erythromycin derivatives” (priority 1991, dated 1994)
Values after ≈ are worked out from the molar mass of the structure shown. Like-named read-outs stand apart in the source and are kept apart here.

Legend:
Test in all cases: In-vitro antimicrobial activity primary screen (agar dilution MIC)
Type in all cases: cell-based
Escherichia coli DC-2 = conditions: DC2; Escherichia coli DC-2; BHI agar, 20-24 h; read-out: MIC
Protocol: (§1) The antimicrobial spectra of several of the compounds of the present invention were tested as described below.
(§2) Twelve petri dishes containing successive aqueous dilutions of the test compounds, mixed with 10 mL of sterilized Brain Heart Infusion (BHI) agar (Difco 0418-01-5), were prepared. Each plate was inoculated with 1:100 (or 1:10 for slow growing strains (primarily Micrococcus and Streptococcus) dilutions of up to 32 different microorganisms, using a Steers replicator block. The inoculated plates were incubated at 35 37° C. for 20-24 hours. In addition, a control plate, using BHI agar containing no test compound, was prepared and incubated at the beginning and the end of each test.
(§3) An additional plate containing a compound having known susceptibility patterns for the organisms being tested and belonging to the same antibiotic class as the test compounds was also prepared and incubated as a further control, as well as to provide test-to test comparability.
(§4) After incubation, each plate was read. The MIC (minimum inhibitory concentration) is defined as the lowest concentration of test compound yielding no growth, a slight haze, or sparsely isolated colonies on the inoculum spot as compared to the growth control containing no test compound.

[1] = system: Providencia stuartii CMX 640; conditions: CMX640; Providencia stuartii CMX 640; BHI agar, 20-24 h; read-out: MIC
Protocol: as §1, §2, §3, §4

[2] = system: Pseudomonas aeruginosa K799/61
Protocol: as §1, §2, §3, §4

[3] = system: Pseudomonas aeruginosa BMH10; conditions: BHI agar, 20-24 h
Protocol: as §1, §2, §3, §4

[4] = system: Pseudomonas aeruginosa A5007
Protocol: as §1, §2, §3, §4

Acinetobacter SP CMX 669 = conditions: Acinetobacter, SPCMX669, 24 h
Protocol: as §1, §2, §3, §4

[5] = system: Staphylococcus epidermidis 3519; conditions: BHI agar, 20-24 h
Protocol: as §1, §2, §3, §4

Pseudomonas cepacia 2961 = conditions: Burkholderia cepacia, BHI agar, 20-24 h, read-out: MIC
Protocol: as §1, §2, §3, §4

[6] = system: Staphylococcus aureus A5177; conditions: Staphylococcus aureus A5177, BHI agar, 20-24 h
Protocol: as §1, §2, §3, §4

Escherichia coli SS = conditions: BHI agar, 20-24 h
Protocol: as §1, §2, §3, §4

[7] = system: Klebsiella pneumoniae ATCC 8045; conditions: ATCC8045; Klebsiella pneumoniae ATCC 8045; BHI agar, 20-24 h; read-out: MIC
Protocol: as §1, §2, §3, §4

[8] = system: Streptococcus pyrogenes EES61; conditions: BHI agar, 20-24 h, read-out: MIC
Protocol: as §1, §2, §3, §4

Escherichia coli H560 = conditions: Escherichia coli, H560, 24 h
Protocol: as §1, §2, §3, §4

[9] = system: Micrococcus luteus ATCC 9341; conditions: 20-24 h
Protocol: as §1, §2, §3, §4

[10] = system: Staphylococcus aureus 45 RAR2; conditions: Staphylococcus aureus, 45RAR2, 24 h, BHI agar, 20-24 h
Protocol: as §1, §2, §3, §4

[11] = system: Enterobacter aerogenes ATCC 13048; conditions: Klebsiella aerogenes, ATCC13048; Enterobacter aerogenes ATCC 13048; BHI agar, 20-24 h; read-out: MIC
Protocol: as §1, §2, §3, §4

Staphylococcus aureus 45 = conditions: BHI agar, 20-24 h, read-out: MIC
Protocol: as §1, §2, §3, §4

[12] = system: Enterococcus faecium ATCC 8043; conditions: Enterococcus faecium, ATCC8043, 24 h
Protocol: as §1, §2, §3, §4

[13] = system: Staphylococcus aureus ATCC 6538P; conditions: Staphylococcus aureus, ATCC6538P, 24 h, BHI agar, 20-24 h
Protocol: as §1, §2, §3, §4

[14] = system: Micrococcus luteus ATCC 4698; conditions: Micrococcus luteus, ATCC4698, 24 h, BHI agar, 20-24 h
Protocol: as §1, §2, §3, §4

[15] = system: Streptococcus bovis A5169; conditions: Streptococcus equinus, BHI agar, 20-24 h
Protocol: as §1, §2, §3, §4

Escherichia coli JUHL = conditions: Escherichia coli JUHL; BHI agar, 20-24 h; read-out: MIC
Protocol: as §1, §2, §3, §4

[16] = system: Pseudomonas aeruginosa K799/WT
Protocol: as §1, §2, §3, §4

[17] = system: Streptococcus agalactiae CMX 508; conditions: Streptococcus agalactiae, CMX508, 24 h, BHI agar, 20-24 h
Protocol: as §1, §2, §3, §4

[18] = system: Streptococcus pyrogenes 2548 INDUC; conditions: BHI agar, 20-24 h
Protocol: as §1, §2, §3, §4

[19] = system: Staphylococcus aureus CMX 686B; conditions: CMX686B, BHI agar, 20-24 h, read-out: MIC
Protocol: as §1, §2
as §3, with “comparability. Erythromycin A was used for this purpose.” for “comparability.”
as §4

[20] = system: Staphylococcus aureus CMX 553; conditions: Staphylococcus aureus, CMX553, 24 h, BHI agar, 20-24 h, read-out: MIC
Protocol: as §1, §2
as §3, with “comparability. Erythromycin A was used for this purpose.” for “comparability.”
as §4

[21] = system: Staphylococcus aureus CMX 503A; conditions: Staphylococcus aureus, CMX503A, 24 h, BHI agar, 20-24 h, read-out: MIC
Protocol: as §1, §2
as §3, with “comparability. Erythromycin A was used for this purpose.” for “comparability.”
as §4

SMILES | MIC (Escherichia coli DC-2) [mg/L] | MIC [1] [mg/L] | MIC (Pseudomonas cepacia 2961) [mg/L] | MIC [7] [mg/L] | MIC [8] [mg/L] | MIC [10] [mg/L] | MIC [11] [mg/L] | MIC (Staphylococcus aureus 45) [mg/L] | MIC [12] [mg/L] | MIC [13] [mg/L] | MIC [14] [mg/L] | MIC (Escherichia coli JUHL) [mg/L] | MIC [17] [mg/L] | MIC [19] [mg/L] | MIC [20] [mg/L] | MIC [21] [mg/L] | also measured
CC[C@H]1OC(=O)[C@H](C)[C@@H](O[C@H]2C[C@@](C)(OC)[C@H](N)[C@H](C)O2)[C@H](C)[C@@H](O[C@@H]2O[C@H](C)C[C@H](N(C)C)[C@H]2O)[C@](C)(O)C[C@@H](C)[C@@H]2O[C@@]1(C)C(=O)[C@H]2C [Example 8, (4"R,9S)-4"-Amino-9-deoxo-4",11,12-trideoxy-9,12-epoxy 11-oxoerythromycin A] | 100 (≈ 140 µM) | > 100 | > 100 | 100 (≈ 140 µM) | 0.01 (≈ 0.014 µM) | 0.2 (≈ 0.28 µM) | > 100 | 0.2 (≈ 0.28 µM) | 0.05 (≈ 0.0699 µM) | 0.2 (≈ 0.28 µM) | 0.05 (≈ 0.0699 µM) | 100 (≈ 140 µM) | 0.02 (≈ 0.028 µM) | 0.2 (≈ 0.28 µM) | 0.1 (≈ 0.14 µM) | 0.2 (≈ 0.28 µM) | MIC ([2]; Pseudomonas aeruginosa, K799/61, 24 h): 0.78 mg/L (≈ 1.09 µM); MIC ([3]; Pseudomonas aeruginosa, BMH10, 24 h): 100 mg/L (≈ 140 µM); MIC ([4]; Pseudomonas aeruginosa, A5007, 24 h): > 100 mg/L; MIC (Acinetobacter SP CMX 669): 6.2 mg/L (≈ 8.67 µM); MIC ([5]; read-out: MIC): 0.2 mg/L (≈ 0.28 µM); MIC ([6]; Staphylococcus aureus, A5177, 24 h): 0.39 mg/L (≈ 0.546 µM); MIC (Escherichia coli SS; Escherichia coli, 24 h): 0.2 mg/L (≈ 0.28 µM); MIC (Escherichia coli H560): 25 mg/L (≈ 35 µM); MIC ([9]; Micrococcus luteus, ATCC9341, 24 h, BHI agar): 0.02 mg/L (≈ 0.028 µM); MIC ([15]; A5169, 24 h): 0.05 mg/L (≈ 0.0699 µM); MIC ([16]; Pseudomonas aeruginosa, K799/WT, 24 h): > 100 mg/L; MIC ([18]; Streptococcus, 2548INDUC, 24 h): 0.39 mg/L (≈ 0.546 µM)
CC[C@H]1OC(=O)[C@H](C)[C@@H](O[C@H]2C[C@@](C)(OC)[C@H](NC(=O)OCc3ccccc3)[C@H](C)O2)[C@H](C)[C@@H](O[C@@H]2O[C@H](C)C[C@H](N(C)C)[C@H]2O)[C@](C)(O)C[C@@H](C)[C@@H]2O[C@@]1(C)C(=O)[C@H]2C [Example 7, (4"R,9S)-9-Deoxo-4",11,12-trideoxy-9,12-epoxy-11-oxo-4"-[[(phenylmethoxy)carbonyl]amino]erythromycin A] | 100 (≈ 118 µM) | > 100 | > 100 | 100 (≈ 118 µM) | 0.1 (≈ 0.118 µM) | 0.39 (≈ 0.459 µM) | 100 (≈ 118 µM) | 0.2 (≈ 0.236 µM) | 0.1 (≈ 0.118 µM) | 0.2 (≈ 0.236 µM) | 0.2 (≈ 0.236 µM) | > 100 | 0.05 (≈ 0.0589 µM) | 0.2 (≈ 0.236 µM) | 0.2 (≈ 0.236 µM) | 0.2 (≈ 0.236 µM) | MIC ([2]; Pseudomonas aeruginosa K799/61, BHI agar, 20-24 h, read-out: MIC): 0.78 mg/L (≈ 0.919 µM); MIC ([3]; read-out: MIC): 100 mg/L (≈ 118 µM); MIC ([4]; Pseudomonas aeruginosa A5007, BHI agar, 20-24 h, read-out: MIC): > 100 mg/L; MIC ([5]; Staphylococcus epidermidis, 3519, 24 h): 0.39 mg/L (≈ 0.459 µM); MIC ([6]; read-out: MIC): 0.39 mg/L (≈ 0.459 µM); MIC (Escherichia coli SS; read-out: MIC): 1.56 mg/L (≈ 1.84 µM); MIC ([9]; ATCC9341, BHI agar, read-out: MIC): 0.05 mg/L (≈ 0.0589 µM); MIC ([15]; read-out: MIC): 0.1 mg/L (≈ 0.118 µM); MIC ([16]; Pseudomonas aeruginosa K799/WT, BHI agar, 20-24 h, read-out: MIC): 100 mg/L (≈ 118 µM); MIC ([18]; read-out: MIC): 0.39 mg/L (≈ 0.459 µM)
